From US7563862B2, “Neural regeneration peptides and methods for their use in treatment of brain damage” (Neuren Pharmaceuticals Limited, priority 2001, dated 2009)
Ends that are not written are not given here.

What was measured:
cerebellar microexplants [1] = settings: AT2 receptor agonist, 96 hours after start of cultivation (Cote et al., 1999); cited from earlier work
mouse neural stem cells = test: haptotactic migration assay, mouse neural stem cells; format: cell-based
Method: NRPs were tested for migration-inducing/chemoattractive activity on mouse neural stem cells, EGF-dependent immortalized mouse neural stem cell line MEB5 and wild-type PC-12 cells in a haptotactic migration assay as described below.
Initial NRP Coating. Control wells of Transwell plates (Coming) with 12 μm pore size were coated in 1.5 ml of the BSA/PBS vehicle. Remaining plates were coated using various concentrations of NRPs ranging between 1-100 ng/ml (prepared in PBS containing 10 ug/ml BSA). The plates were then incubated at 37° C. for 1 hr to coat. Wells were then rinsed 2× with 1 ml sterile PBS.
Laminin ([…]) for MEB-5 cells, PDL (50 μg/ml)+Matrigel for mouse primary stem cells and fibronectin (25 ug/ml)+matrigel for PC-12 cells were used as extracellular matrix (ECM) coating for the cells. All ECM compounds were diluted in PBS. 1.5 ml of the ECM per well was incubated for 2 hrs at room temperature. The wells were then rinsed once with Iml serum-free media (e.g. NB/B27) followed by 1 ml PBS wash.
A 5 ug/mL PDL/PLL mixture (in PBS) was used to coat inserts. Subsequently the inserts were rinsed with MilliQ water.
Transferring to Media and Cell Seeding: Appropriate medium (MEB-5 cells: DMEM-high glucose+N2 (growth medium supplement from Invitrogen)+10 ng/biotin+2 mM L-glutamine, primary stem cells: NSA-medium from Euroclone and for PC-12 cells: NB/B27 medium) was transferred into the 12-well plates. […] Plates were fixed at 1-2 days in vitro (DIV).
Fixation: Inserts were discarded and wells fixed in successive dilutions of PFA (0.4, 1.2, 3 and 4%) for 3-5min in each dilution. […] The wells were rinsed and stored in PBS until counting.
A haptotactic migration assay was performed according to the description of Example 10 using rat NRP-9SD (SEQ ID NO:34) (4 nM) and mouse NRP-7SW (SEQ ID NO:24) (0.4 nM) as attractants in a Boyden chamber

cerebellar microexplants [2] = test: cerebellar microexplant survival assay, 3-NP/glutamate injury; format: cell-based, rat
Method: Toxicological and drug administration experiments were designed such that 1/100 parts of toxin and neuroprotective drug were administered simultaneously to the freshly prepared cerebellar microexplants derived from P-4 or P8 rats. Glutamate was prepared as a 50 mM stock solution in MilliQ water while 50 mM 3-nitropropionic acid was pH-adjusted (pH 6.8-7.2) in MilliQ water. The concentrations of the oxidative stress inducing toxin, 3-nitropropionic acid (3-NP), and the excitotoxin, glutamate, in the assay were 0.5 mM each. Lyophilized peptides were reconstituted in PBS or 100 μg/ml human transferrin as a 10 μM stock solution. Subsequently, serial dilutions were made. Cerebellar microexplants were cultivated for 48-72 hours at 34° C., 5% CO2 in air and 100% humidity before they were fixed by increasing amounts of paraformaldehyde (0.4%, 1.2%, 3% and 4%—each treatment 2-3 min).
For statistical analysis of survival, four fields (each field having an area of 0.65 mm^2) of each fixed cerebellar culture with the highest cell densities were chosen, and cells displaying neurite outgrowth were counted. Statistical significance was measured by Student's t-test.
Laminated cerebellar cortex was extracted from P3/4, P7/8 rat pups and triturated through gauze having a 125 μm pore size to obtain uniformly sized microexplants. After centrifugation for 3 minutes at 61 g and the pellet was resuspended in StartV medium (Biochrom) and the suspension seeded on poly-D-lysine coated coverslips in 6-well plates and incubated for 3 hrs to allow adherence, before 1 ml StartV per well was added. As described previously, glutamate/3-NP and NRP were also added. The explants are cultivated at 34° C. at 5% CO2 and 100% humidity for 48-72 hrs. BrdU was administered at start of cultivation for proliferation rate measurements and cells are counted per microscopic field after 48-72 hrs.
Cerebellar Microexplants were prepared as described in Example 9 with the addition of SDF-1 as described, in addition to glutamate/3-NP, and NRP.
Cerebellar microexplants were prepared as described in Example 9 with the addition of SDF-1, Wortmannin and PD98059 (both Calbiochem), as described, in addition to glutamate/3-NP, and NRP.

[3] = tested on: embryonic cerebellar microexplants; test: neural cell proliferation in embryonic cerebellar microexplants; format: cell-based
From the text: In another set of studies, we determined effects of NRP-5 RG on induction of neural cell proliferation in embryonic cerebellar microexplants as described herein.

hypoxic-ischemic injury = hypoxic-ischemic injury (HI) in adult rats, histological tissue damage score; format: in vivo, rat; settings: five days after insult; for neuroprotection: ICV 2 hrs after hypoxia
Method: To test the efficacy of NRPs in vivo studies were carried out in rats that had been exposed to hypoxic-ischemic injury (HI). Adult rats (50 days old, Wistar, 250-300 g, male) were used. The modified Levine model preparation and experimental procedures were used (Rice et al, 1981, Ann. Neurol. 9: 131-141; Guan et al J., 1993, Cereb. Blood Flow Metab.: 13(4): 609-16). These procedures in brief, consist of an HI injury induced by unilateral carotid artery ligation followed by inhalational asphyxia in the animals with an implanted lateral ventricular cannula. A guide cannula was stereotaxically placed on the top of the dura 1.5 mm to the right of the mid-line and 7.5 mm anterior to the interaural zero plane under halothane anaesthesia. The right carotid artery was double ligated two days after the cannulation. After a 1-hour recovery period from anaesthesia, each of the rats was placed in an incubator where the humidity (90±5%) and temperature ([…]) were controlled for another hour, and then each of the rats was exposed to hypoxia (6% oxygen) for 10 min. The animals were kept in the incubator for an additional 2 hours before treatment.
Rats were treated intracerebral ventricularly (icv) with 5 nM (n=12), 50 nM (n=12) or 500 nM of NRP-4 segment PQ (PGRAEAGGQ; SEQ ID NO:43) dissolved in saline, or vehicle (n=10) (normal saline) 2 hours after hypoxic-ischemic insult.
Histological examination was performed on rats 5 days after the hypoxic-ischemic injury. The rats were killed with an overdose of sodium pentobarbital and were perfused transcardially with normal saline followed by 10% formalin. The brains were kept in the same fixative for a minimum of 2 days before being processed using a standard paraffin imbedding procedure.
Coronal sections 8 μm in thickness were cut from the striatum, cerebral cortex and hippocampus and were stained with thionin and acid fuchsin. The severity of tissue damage was scored in the striatum, cortex and the CA1-2, CA3, CA4 and dentate gyrus of the hippocampus. […]

cerebellar microexplants [4] = test: cerebellar microexplants, oxidative stress by 0.1 mM hydrogen peroxide; format: cell-based; settings: 48 hrs
Method: In this series of experiments, we studied whether NRP-4 Segment PQ (“NRP-4 PQ”) was able to protect cerebellar microexplanted cells from oxidative injury. We exposed cells to vehicle, 0.1 mM hydrogen peroxide or different concentrations of NRP-4 PQ in vehicle. […] Although the mechanism for this potentiation of neurite outgrowth is uncertain, it may relieve the stresses associated with creating or maintaining the microexplants themselves.

Row | Substance | longest migration distances (cerebellar microexplants [1]) | greater chemoattractive effect than control (BSA-containing) medium (mouse neural stem cells) [%] | higher neuroprotection than SEQ ID NO:46 (cerebellar microexplants [2]) [%] | times higher potency than SEQ ID NO:46 (cerebellar microexplants [2]) | concentration of maximal proliferation-inducing activity [3] [pM] | neuroprotection (hypoxic-ischemic injury) | neuroprotection (cerebellar microexplants [4]) | neuroprotection within all analysed brain regions (hypoxic-ischemic injury; 9 ng/20 μl icv 2 hrs after hypoxia) [%]
1 | CGP-42112 | around 550 im | – | – | – | – | – | – | –
2 | REGRRDAPGRAGG-NH2 [NRP-5 segment RG, 13-mer fragment of NRP-5] | – | 42.1 | 20 | 10^6 to 10^7 times | 100 | substantial neuroprotection in all analysed brain regions | – | –
3 | PGRAEAGGQ-NH2 [NRP-4 segment PQ, 9-mer of NRP-4] | – | – | – | – | – | substantial neuroprotection in all analysed brain regions | even greater than that of control explants receiving no peroxide | 100
